Reference: PMC6941357, “An in vitro toolbox to accelerate anti-malarial drug discovery and development” (Malaria Journal, 2020)
Values joined by “and” are separate entries in the source; they are usually repeats but may differ in a detail not shown here. Equal values may be shown once.

Tests used:
[1] = Solubility in biorelevant media; conditions: thermodynamic from solid; for solubility at 1 h: 37 °C, fassgf or other biorelevant
How it was run: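 LC–MS quantification of supernatants, after two centrifugations, in triplicate against calibration standards. Media: FaSSGF sampled at 1 h; FaSSIF-V2, FeSSIF-V2 and pH 7.4 PBS sampled at 5–6 h; all at 37 °C on an orbital mixer at 600 rpm.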

[2] = Bidirectional permeability across Caco-2 cell monolayers; conditions: human
How it was run: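 Donor and acceptor concentrations measured by LC–MS to give Papp, mass balance and efflux ratio (mean B–A over A–B Papp). Media were pH 7.4 HEPES-buffered HBSS or human plasma on both sides; for plasma, Papp used the donor fraction unbound. Donor contained 0.1% v/v DMSO.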

[3] = Plasma protein binding via rapid equilibrium dialysis (RED), 10% plasma; format: in vitro ADME, human; conditions: human, 10% pooled plasma (diluted 1:10), pH 7.4, RED, 10% plasma corrected for dilution; for fraction unbound at 6 h: 6 h dialysis; for fraction unbound at 24 h: presaturation of device and 24 h dialysis
Method: Pooled human plasma (n = 3–4 donors) was obtained by centrifugation of blood (collected by the Australian Red Cross Blood Service, Melbourne, Australia or the Volunteer Blood Donor Registry, Clinical Translation Centre, Walter & Eliza Hall Institute of Medical Research, Parkville, Australia), or sourcing pooled plasma directly from commercial sources (Innovative Research Inc, MI) and stored frozen at − 80 °C.
Plasma was diluted 1:10 with pH 7.4 phosphate buffer (prepared by mixing 0.1 M sodium dihydrogen phosphate and 0.1 M disodium hydrogen phosphate (both containing 0.04 M NaCl) to pH 7.4) and spiked with compound to achieve a total measured concentration of ~ 1000–3000 ng/mL. Diluted plasma was vortex mixed briefly and aliquots (n = 3–4) were transferred to RED (Thermo Fisher Scientific, Waltham, MA) units that were placed at 37 °C under ambient atmosphere on a plate shaker. […] At the end of the dialysis period, samples were removed from both the donor and dialysate chambers of the RED units. […] Fraction unbound values were calculated for each individual RED unit and the mean and SD calculated for n = 3–4 replicates.
Briefly, the RED device was exposed for two 30 min periods and one overnight period to fresh solutions of compound prepared in pH 7.4 buffer at approximately 10% of the total dialysis concentration. Following the preincubations, solutions were removed from the RED device and discarded. […] Samples were removed and analysed as described above.
For binding assessments using 10% plasma, the unbound fraction (fu) in neat plasma was calculated using the average values for Ctotal and Cunbound and Eq.

CYP2C9 = CYP2C9 (Homo sapiens, UniProt P11712); assay: Cytochrome P450 inhibition in human liver microsomes
CYP2C9, sequence (P11712 whole entry, canonical isoform): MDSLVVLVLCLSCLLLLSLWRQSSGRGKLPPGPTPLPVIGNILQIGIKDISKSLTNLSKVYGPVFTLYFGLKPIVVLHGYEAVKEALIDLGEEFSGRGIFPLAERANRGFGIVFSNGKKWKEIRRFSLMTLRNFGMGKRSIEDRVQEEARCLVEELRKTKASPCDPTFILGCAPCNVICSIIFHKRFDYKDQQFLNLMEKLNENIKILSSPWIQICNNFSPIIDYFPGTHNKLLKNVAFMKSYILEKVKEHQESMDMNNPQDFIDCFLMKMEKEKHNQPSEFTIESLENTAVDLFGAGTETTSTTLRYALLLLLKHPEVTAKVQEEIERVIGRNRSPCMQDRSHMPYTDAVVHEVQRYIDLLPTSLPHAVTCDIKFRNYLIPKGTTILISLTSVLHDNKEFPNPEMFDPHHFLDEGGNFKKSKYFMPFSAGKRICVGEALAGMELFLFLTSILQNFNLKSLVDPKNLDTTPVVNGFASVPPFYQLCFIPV
How it was run: (§1)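 Human liver microsomes were incubated with an isoform-specific probe substrate, and formation of the CYP-mediated metabolite was measured by LC–MS after quenching in ice-cold acetonitrile with diazepam as internal standard. Inhibition was expressed as percent reduction in metabolite formation versus an uninhibited control.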

CYP2C19 = CYP2C19 (Homo sapiens, UniProt P33261); assay: as above
CYP2C19, sequence (P33261 whole entry): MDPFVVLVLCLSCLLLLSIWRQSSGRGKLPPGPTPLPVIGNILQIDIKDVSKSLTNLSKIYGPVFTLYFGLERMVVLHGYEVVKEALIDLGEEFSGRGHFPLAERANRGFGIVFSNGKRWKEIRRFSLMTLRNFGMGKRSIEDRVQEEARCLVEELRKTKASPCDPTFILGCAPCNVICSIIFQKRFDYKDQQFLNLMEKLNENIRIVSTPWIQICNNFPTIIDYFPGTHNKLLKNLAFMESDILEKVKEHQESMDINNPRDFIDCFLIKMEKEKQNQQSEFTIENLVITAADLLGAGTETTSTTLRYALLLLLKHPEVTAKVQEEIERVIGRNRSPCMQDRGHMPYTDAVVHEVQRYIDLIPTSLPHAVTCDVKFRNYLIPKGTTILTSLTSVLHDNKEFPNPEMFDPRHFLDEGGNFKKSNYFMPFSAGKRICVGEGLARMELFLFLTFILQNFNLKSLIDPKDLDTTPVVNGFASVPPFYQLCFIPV
How it was run: as §1

[4] = Binding to human liver microsomes via ultracentrifugation; format: in vitro ADME; conditions: human, liver microsomes, pH 7.4, 0.4 mg/mL protein, read-out: Fraction unbound, HLM
How it was run: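 Unbound fraction by ultracentrifugation: Cunbound measured in protein-free supernate, Ctotal from spiked tubes held at 37 °C, sampled at start and end to check degradation. Matrix was 0.4 mg/mL human liver microsomal protein, 0.1 M phosphate pH 7.4; matrix-matched analysis against one calibration curve.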

CYP3A4 = CYP3A4 (Homo sapiens, UniProt P08684); assay: in vitro; conditions: for CYP3A4 (midaz) % inhibition at max conc / CYP3A4 (test) % inhibition at max conc / inhibition at 20 µM: microsomes; for IC50: highest concentration tested 20 µM; for inhibition at 20 µM: human
CYP3A4, sequence (P08684 whole entry): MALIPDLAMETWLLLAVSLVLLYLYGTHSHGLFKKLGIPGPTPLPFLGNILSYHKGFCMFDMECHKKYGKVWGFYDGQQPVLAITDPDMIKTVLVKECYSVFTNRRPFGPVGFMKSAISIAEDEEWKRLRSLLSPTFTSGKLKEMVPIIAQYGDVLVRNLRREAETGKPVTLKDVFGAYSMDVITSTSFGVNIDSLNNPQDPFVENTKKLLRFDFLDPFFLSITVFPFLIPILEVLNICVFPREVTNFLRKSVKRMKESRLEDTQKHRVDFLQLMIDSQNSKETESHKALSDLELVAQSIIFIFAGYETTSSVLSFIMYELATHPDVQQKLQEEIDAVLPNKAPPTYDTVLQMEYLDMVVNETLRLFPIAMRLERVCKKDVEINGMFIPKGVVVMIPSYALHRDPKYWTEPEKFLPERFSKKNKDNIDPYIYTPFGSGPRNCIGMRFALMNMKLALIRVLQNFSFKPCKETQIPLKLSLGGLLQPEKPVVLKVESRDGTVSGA
How it was run: as §1

[5] = phosphate buffered saline pH 7.4, 37 °C, pH 7.4, aqueous buffer
[6] = Caco-2, pH 7.4, A–B Papp, matrix: pH 7.4 buffer
[7] = CYP3A4 (midaz) IC50, human liver microsomes, CYP3A4 (midaz)
[8] = CYP3A4 (test) IC50, human liver microsomes, CYP3A4 (test)
[9] = pH 7.4, CYP3A4 (test) % inhibition at max conc
[10] = human liver microsomes, at max conc, nmi = no measurable inhibition

CC[C@H]1OC(=O)[C@H](C)[C@@H](O[C@H]2C[C@@](C)(OC)[C@@H](O)[C@H](C)O2)[C@H](C)[C@@H](O[C@@H]2O[C@H](C)C[C@H](N(C)C)[C@H]2O)[C@](C)(O)C[C@@H](C)CN(C)[C@H](C)[C@@H](O)[C@]1(C)O [Azithromycin]
solubility at 1 h ([1]; FaSSGF): 1180 µg/mL and 1570 µM
solubility ([1]; FaSSIF-V2, 37 °C, fassif): 1440 µg/mL and 1930 µM
solubility ([1]; FeSSIF-V2, 37 °C, fessif): > 2000 µg/mL and > 2670 µM
solubility [1, 5]: > 2000 µg/mL and > 2670 µM
Papp B→A ([2]; Caco-2, pH 7.4): 13 ± 3.9 ×10⁻⁶ cm/s
fraction unbound at 6 h [3]: 0.34
IC50 (CYP2C9): > 20 µM
CYP2C9 % inhibition at max conc (CYP2C9; microsomes): nmi
IC50 (CYP2C19): > 20 µM
inhibition at 20 µM (CYP2C19; human, microsomes, pH 7.4): 29%
fraction unbound at […] [4]: 0.7 ± 0.06

COc1ncnc(NS(=O)(=O)c2ccc(N)cc2)c1OC [Sulfadoxine]
solubility at 1 h ([1]; FaSSGF): 324 µg/mL and 1040 µM
solubility ([1]; FaSSIF-V2, 37 °C, fassif): 858 µg/mL and 2770 µM
solubility ([1]; FeSSIF-V2, 37 °C, fessif): 474 µg/mL and 1530 µM
solubility [1, 5]: > 1900 µg/mL and > 6400 µM
Papp B→A ([2]; Caco-2, pH 7.4): 23 ± 2.8 ×10⁻⁶ cm/s
Papp A→B [2, 6]: 15 ± 2.5 ×10⁻⁶ cm/s
fraction unbound at 6 h [3]: 0.025
CYP3A4 (midaz) % inhibition at max conc (CYP3A4): nmi
CYP3A4 (test) % inhibition at max conc (CYP3A4): nmi
IC50 (CYP2C9): > 20 µM
CYP2C9 % inhibition at max conc (CYP2C9; microsomes): nmi
IC50 (CYP2C19): > 20 µM
CYP2C19 % inhibition at max conc (CYP2C19; microsomes): nmi
fraction unbound at […] [4]: 0.93 ± 0.086

CO[C@H]1O[C@@H]2O[C@@]3(C)CC[C@H]4[C@H](C)CC[C@@H]([C@H]1C)[C@@]24OO3 [Artemether]
solubility at 1 h ([1]; FaSSGF): 95 µg/mL and 320 µM
solubility ([1]; FaSSIF-V2, 37 °C, fassif): 166 µg/mL and 556 µM
solubility ([1]; FeSSIF-V2, 37 °C, fessif): 1040 µg/mL and 3480 µM
solubility [1, 5]: 109 µg/mL and 365 µM
Papp B→A ([2]; Caco-2, pH 7.4): 42 ± 5.6 ×10⁻⁶ cm/s
Papp A→B [2, 6]: 39.1 ×10⁻⁶ cm/s
fraction unbound at 24 h [3]: 0.066
IC50 (CYP3A4; [7]): > 20 µM
IC50 (CYP3A4; [8]): > 20 µM
inhibition at 20 µM (CYP3A4; pH 7.4, CYP3A4 (midaz) % inhibition at max conc): 39%
inhibition at 20 µM (CYP3A4; [9]): 37%
IC50 (CYP2C9): > 20 µM
CYP2C9 % inhibition at max conc (CYP2C9; microsomes): nmi
IC50 (CYP2C19): > 20 µM
CYP2C19 % inhibition at max conc (CYP2C19; microsomes): nmi
fraction unbound at […] [4]: 0.5 ± 0.052

C[C@H]1c2cccc(O)c2C(=O)C2=C(O)[C@]3(O)C(=O)C(C(N)=O)=C(O)[C@@H](N(C)C)[C@@H]3[C@@H](O)[C@@H]21 [Doxycyclin]
solubility at 1 h ([1]; FaSSGF): > 2000 µg/mL and > 4500 µM
solubility ([1]; FaSSGF, FaSSIF-V2, FeSSIF-V2 and PBS pH 7.4, 37 °C, pH 7.4, aqueous buffer): > 2000 µg/mL
solubility ([1]; FaSSIF-V2, 37 °C, fassif): > 2000 µg/mL and > 4500 µM
solubility ([1]; FeSSIF-V2, 37 °C, fessif): > 2000 µg/mL and > 4500 µM
solubility [1, 5]: > 2000 µg/mL and > 4500 µM
Papp B→A ([2]; Caco-2, pH 7.4): 4.2 ± 0.29 ×10⁻⁶ cm/s
Papp A→B [2, 6]: < 5 ×10⁻⁶ cm/s
fraction unbound at 6 h [3]: 0.23 ± 0.09
IC50 (CYP3A4; [7]): > 20 µM
IC50 (CYP3A4; [8]): > 20 µM
inhibition at 20 µM (CYP3A4; [9]): 22%
CYP3A4 (midaz) % inhibition at max conc (CYP3A4): nmi
IC50 (CYP2C9): > 20 µM
CYP2C9 % inhibition at max conc (CYP2C9; microsomes): nmi
IC50 (CYP2C19): > 20 µM
CYP2C19 % inhibition at max conc (CYP2C19; microsomes): nmi
fraction unbound at […] [4]: 0.93 ± 0.045

CCc1nc(N)nc(N)c1-c1ccc(Cl)cc1 [Pyrimethamine]
solubility at 1 h ([1]; FaSSGF): > 2000 µg/mL and > 8000 µM
solubility ([1]; FaSSIF-V2, 37 °C, fassif): 111 µg/mL and 446 µM
solubility ([1]; FeSSIF-V2, 37 °C, fessif): 120 µg/mL and 483 µM
solubility [1, 5]: 43 µg/mL and 175 µM
Papp A→B ([2]; Caco-2, pH 7.4): 60 ± 5.6 ×10⁻⁶ cm/s
Papp B→A ([2]; Caco-2, pH 7.4): 59 ± 2.9 ×10⁻⁶ cm/s
fraction unbound at 6 h [3]: 0.095 ± 0.001
CYP2C9 % inhibition at max conc (CYP2C9; microsomes): nmi
CYP2C19 % inhibition at max conc (CYP2C19; microsomes): nmi
fraction unbound at […] [4]: 0.54 ± 0.097

Clc1ccc2c(N3CCN(CCCN4CCN(c5ccnc6cc(Cl)ccc56)CC4)CC3)ccnc2c1 [Piperaquine]
solubility at 1 h ([1]; FaSSGF): > 2000 µg/mL and > 3700 µM
solubility ([1]; FaSSIF-V2, 37 °C, fassif): 103 µg/mL and 192 µM
solubility ([1]; FeSSIF-V2, 37 °C, fessif): 60.7 µg/mL and 113 µM
solubility [1, 5]: < 0.5 µg/mL and < 0.9 µM
fraction unbound at 24 h [3]: 0.0003 ± 0.0001
IC50 (CYP3A4; [7]): 4.5 µM
Ki (CYP3A4; CYP3A4 (midaz) Ki, human liver microsomes, CYP3A4 (midaz)): 3.2 µM
IC50 (CYP3A4; [8]): > 20 µM
CYP3A4 (test) % inhibition at max conc (CYP3A4): nmi
IC50 (CYP2C19): > 20 µM
CYP2C19 % inhibition at max conc (CYP2C19; microsomes): nmi
fraction unbound at […] [4]: 0.013 ± 0.002

O=C1C(O)=C([C@H]2CC[C@H](c3ccc(Cl)cc3)CC2)C(=O)c2ccccc21 [Atovaquone]
solubility at 1 h ([1]; FaSSGF): 0.26 µg/mL and 0.71 µM
solubility ([1]; FaSSIF-V2, 37 °C, fassif): 1.83 µg/mL and 4.99 µM
solubility ([1]; FeSSIF-V2, 37 °C, fessif): 6.41 µg/mL and 17.5 µM
solubility [1, 5]: < 0.05 µg/mL and < 0.1 µM
fraction unbound at 24 h [3]: < 0.0001
CYP3A4 (midaz) % inhibition at max conc (CYP3A4): nmi
CYP3A4 (test) % inhibition at max conc (CYP3A4): nmi
IC50 (CYP2C9): > 20 µM
inhibition at 20 µM (CYP2C9; human, microsomes, pH 7.4): 26%
IC50 (CYP2C19): > 20 µM
CYP2C19 % inhibition at max conc (CYP2C19; microsomes): nmi
fraction unbound at […] [4]: ~0.002

CCCCN(CCCC)CCC(O)c1cc2c(Cl)cc(Cl)cc2c2cc(C(F)(F)F)ccc12 (centres unmarked) [Halofantrine]
solubility at 1 h ([1]; FaSSGF): 12.7 µg/mL and 25.4 µM
solubility ([1]; FaSSIF-V2, 37 °C, fassif): 69.9 µg/mL and 140 µM
solubility ([1]; FeSSIF-V2, 37 °C, fessif): 739 µg/mL and 1480 µM
solubility [1, 5]: < 0.05 µg/mL and < 0.1 µM
fraction unbound at 24 h [3]: < 0.0001
inhibition at 20 µM (CYP3A4; pH 7.4, CYP3A4 (midaz) % inhibition at max conc, human liver microsomes, CYP3A4 (midaz), at max conc, nmi = no measurable inhibition): 24%
inhibition at 20 µM (CYP3A4; pH 7.4, CYP3A4 (test) % inhibition at max conc, human liver microsomes, CYP3A4 (test), at max conc, nmi = no measurable inhibition): 19%
IC50 (CYP2C9): > 20 µM
CYP2C9 % inhibition at max conc (CYP2C9; [10]): nmi
IC50 (CYP2C19): > 20 µM
CYP2C19 % inhibition at max conc (CYP2C19; [10]): nmi
fraction unbound at […] [4]: 0.002 ± 0.0002
